Results: PubChem BioAssay AID624112 (National Center for Advancing Translational Sciences (NCATS), 2012)

Test system: Aqueous solubility in PBS, percent remaining
Experiment: qHTS Assay for Inhibitors of Bacillus subtilis Sfp phosphopantetheinyl transferase (PPTase): Aqueous Solubility in PBS
Settings: hits give high values
Description: The covalent attachment of a phosphopantetheinyl (4'-PP) arm to a variety of synthases and other proteins is a key posttranslational protein modification. The 4'-PP is installed on the proteins post-translationally from coenzyme A (CoA) on a conserved serine residue by action of phosphopantetheinyl transferase (PPTase) enzymes. Phosphopantetheinylation is essential for synthase activity, and removal of the PPTase gene precludes natural product synthesis in microorganisms, or in the case of fatty acid biosynthesis, renders the organism unviable. PPTase enzymes belong to a distinct structural superfamily. Within bacteria, these enzymes are grouped into two classes based upon primary structure, the AcpS-Type and Sfp-Type PPTases.
Sfp-type PPTases, corresponding to an activator of surfactin production in Bacillus subtilis, are responsible for modifying type I polyketide and nonribosomal peptide synthases of prokaryotes. Sfp-type PPTases are responsible for the activation of a variety of pathogen-associated virulence factors. […]
2microM of compound is incubated in PBS buffer at pH 7; the reference compound is procaine. Compounds are incubated at 37 deg C for the pre-determined time periods and the when aliquots are removed. Samples are analyzed with LC-MS/MS.

## COc1ccnc(NC(=S)N2CCN(c3ncc(C(F)(F)F)cc3Cl)CC2)c1
  solubility, percent remaining: 100%
